Results: publication PMC7509852 (Biochemistry, 2020)

Tests used:
Cj1427 [1] = target: T1, Cj1427 (Campylobacter jejuni, UniProt Q0P8I7); assay: UV-vis loss of […] nm band; format: biochemical; details: NADH-bound enzyme; 2.0 mM substrate; 50 mM HEPES/KCl pH 7.4, 30 °C
Cj1427 [2] = target: T1, Cj1427; assay: UV-vis spectrum of bound cofactor; format: biochemical; details: NAD+-bound enzyme; 2.0 mM substrate; 50 mM HEPES/KCl pH 7.4, 30 °C

T1 sequence (Q0P8I7 whole entry): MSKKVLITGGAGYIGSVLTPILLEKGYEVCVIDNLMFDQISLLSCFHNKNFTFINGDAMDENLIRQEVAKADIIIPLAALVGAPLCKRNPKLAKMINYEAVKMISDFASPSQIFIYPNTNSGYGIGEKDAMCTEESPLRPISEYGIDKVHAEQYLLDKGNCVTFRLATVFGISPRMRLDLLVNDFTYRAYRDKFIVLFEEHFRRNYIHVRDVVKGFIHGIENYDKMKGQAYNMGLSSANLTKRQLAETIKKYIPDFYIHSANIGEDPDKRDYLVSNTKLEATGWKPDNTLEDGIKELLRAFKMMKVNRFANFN

SMILES	UV-vis loss of 350 nm band; ion exchange chromatography (Cj1427 [1])	UV-vis spectrum of bound cofactor (Cj1427 [2])
O=C(O)CCC(=O)C(=O)O [α-ketoglutarate]	initially bound NADH was converted to NAD^+ in the presence of α-ketoglutarate	–
O=C(O)CC[C@H](O)C(=O)O [L-2-hydroxyglutarate]	–	Cj1427 with bound NAD^+ catalyzes the oxidation of L-2-hydroxyglutarate to α-ketoglutarate and NADH
